Test results from patent publication US8309597B2, “1,1′-diadamantyl carboxylic acids, medicaments containing such compounds and their use” (Boehringer Ingelheim International GmbH, priority 2008, dated 2012).

Biological target: T1, 11β-hydroxysteroid dehydrogenase (HSD) 1 (Homo sapiens, UniProt P28845)
T1 construct: detecting cortisol generated from cortisterone by human liver microsomes; from tissue; host or cells: human liver microsomes
Assay: In vitro inhibition of 11β-HSD1, HTRF detection of cortisol generated from cortisone by human liver microsomes
Type: biochemical
Settings: compound concentration 1 μM, 100% indicates no inhibition, zero or below zero indicates complete inhibition
Method: Briefly, compounds are incubated for 1 hour at 37° C. in Tris buffer (20 mM tris, 5 mM EDTA, pH 6.0) containing NADPH (200 μM) and cortisone (80 nM). Cortisol generated in the reaction is then detected with a competitive immunoassay, involving two HTRF conjugates: cortisol linked to XL665 and anti-cortisol antibody labeled with Europium cryptate. The incubation period for detection reaction is typically 2 hours. The amount of cortisol is determined by reading the time-resolved fluorescence of the wells (Ex 320/75 nm; Em 615/8.5 nm and 665/7.5 nm). The ratio of the two emission signals is then calculated (Em665*10000/Em615). […] Each assay also contains a calibration curve with cortisol to transform the fluorescent data into cortisol concentrations. Percent inhibition (% CTL) of each compound is determined relative to the carbenoxolone signal and IC50 curves are generated.
The % CTL values of some example compounds at a concentration of 1 μM are provided in the following Table 2 wherein 100% indicates no inhibition and a value of zero or below zero indicates complete inhibition. The measurement of % CTL is described hereinbefore.

T1 sequence (P28845 whole entry): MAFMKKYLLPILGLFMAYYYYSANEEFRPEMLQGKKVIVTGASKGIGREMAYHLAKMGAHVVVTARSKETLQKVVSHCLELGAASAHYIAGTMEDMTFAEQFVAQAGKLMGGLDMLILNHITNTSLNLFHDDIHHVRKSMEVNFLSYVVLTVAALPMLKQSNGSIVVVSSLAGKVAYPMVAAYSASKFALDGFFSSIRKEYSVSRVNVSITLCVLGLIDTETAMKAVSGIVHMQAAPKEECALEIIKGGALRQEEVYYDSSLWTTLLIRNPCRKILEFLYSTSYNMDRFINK

Structure (SMILES)	11β-HSD 1 inhibitory activity (% CTL at 1 μM)
CN(C(=O)C12CC3CC(C1)CC(C14CC5CC(CC(C(=O)O)(C5)C1)C4)(C3)C2)C1CCCNC1 (stereo not shown) [Example 31]	61 % CTL
O=C(O)C12CC3CC(C1)CC(C14CC5CC(CC(C(=O)N6CCc7ccccc7C6)(C5)C1)C4)(C3)C2 [Example 43]	−20 % CTL
CN(C)C(=O)c1ccc(Oc2ccc3c(c2)CN(C(=O)C24CC5CC(C2)CC(C26CC7CC(CC(C(=O)O)(C7)C2)C6)(C5)C4)CC3)cc1 [Example 46]	0 % CTL
CN(C(=O)C12CC3CC(C1)CC(C14CC5CC(CC(C(=O)O)(C5)C1)C4)(C3)C2)c1ccccc1 [Example 30]	30 % CTL
O=C(O)C12CC3CC(C1)CC(C14CC5CC(CC(C(=O)NCCO)(C5)C1)C4)(C3)C2 [Example 13]	53 % CTL
NC12CC3CC(C1)CC(C14CC5CC(CC(C(=O)O)(C5)C1)C4)(C3)C2 [Example 8]	95 % CTL
O=C(O)C12CC3CC(C1)CC(C14CC5CC(CC(COc6ccccn6)(C5)C1)C4)(C3)C2 [Example 15]	34 % CTL
O=C(O)C12CC3CC(C1)CC(C14CC5CC(CC(C6=NCc7ccccc7N6)(C5)C1)C4)(C3)C2 [Example 37]	62 % CTL
COc1ccc(CCCN(C)C(=O)C23CC4CC(C2)CC(C25CC6CC(CC(C(=O)O)(C6)C2)C5)(C4)C3)cc1 [Example 23]	−18 % CTL
N#CC12CC3CC(C1)CC(C14CC5CC(CC(C(=O)O)(C5)C1)C4)(C3)C2 [Example 6]	1 % CTL
CN(Cc1ccccc1)C(=O)C12CC3CC(C1)CC(C14CC5CC(CC(C(=O)O)(C5)C1)C4)(C3)C2 [Example 9]	49 % CTL
CC(=O)NC12CC3CC(C1)CC(C14CC5CC(CC(C(=O)O)(C5)C1)C4)(C3)C2 [Example 16]	69 % CTL
O=C(O)C12CC3CC(C1)CC(C14CC5CC(CC(C(=O)N6CCc7cc(Br)ccc7C6)(C5)C1)C4)(C3)C2 [Example 49]	24 % CTL
CNC(=O)C12CC3CC(C1)CC(C14CC5CC(CC(C(=O)O)(C5)C1)C4)(C3)C2 [Example 2]	29 % CTL
CN(C(=O)C12CC3CC(C1)CC(C14CC5CC(CC(C(=O)O)(C5)C1)C4)(C3)C2)C1CCCC1 [Example 40]	−20 % CTL
COCC1CCCN1C(=O)C12CC3CC(C1)CC(C14CC5CC(CC(C(=O)O)(C5)C1)C4)(C3)C2 (stereo not shown) [Example 47]	−15 % CTL
COc1ccc(C(=O)C23CC4CC(C2)CC(C25CC6CC(CC(C(=O)O)(C6)C2)C5)(C4)C3)cc1 [Example 24]	−33 % CTL
O=C(O)C12CC3CC(C1)CC(C14CC5CC(CC(CO)(C5)C1)C4)(C3)C2 [Example 14]	−5 % CTL
CN(C(=O)C12CC3CC(C1)CC(C14CC5CC(CC(C(=O)O)(C5)C1)C4)(C3)C2)C1CCC(C(C)(C)C)CC1 (stereo not shown) [Example 38]	7 % CTL
CC(C)(O)C12CC3CC(C1)CC(C14CC5CC(CC(C(=O)O)(C5)C1)C4)(C3)C2 [Example 3]	−11 % CTL
O=C(O)C12CC3CC(C1)CC(C14CC5CC(CC(c6nnn[nH]6)(C5)C1)C4)(C3)C2 [Example 21]	69 % CTL
COC(=O)C12CC3CC(C1)CC(C14CC5CC(CC(C(=O)O)(C5)C1)C4)(C3)C2 [Example 1]	−7 % CTL
O=C(O)C12CC3CC(C1)CC(C14CC5CC(CC(C(=O)N6CCCC6)(C5)C1)C4)(C3)C2 [Example 11]	−11 % CTL
O=C(O)C12CC3CC(C1)CC(C14CC5CC(CC(c6nnc(-c7ccccc7)o6)(C5)C1)C4)(C3)C2 [Example 26]	44 % CTL
CC(C)(C)OC(=O)NC12CC3CC(C1)CC(C14CC5CC(CC(C(=O)O)(C5)C1)C4)(C3)C2 [Example 7]	26 % CTL

Structure (SMILES)	11β-HSD 1 inhibitory activity (% CTL at 1 μM)
O=C(O)C12CC3CC(C1)CC(C14CC5CC(CC(C(=O)N(CCc6ccccc6)C6CCCCC6)(C5)C1)C4)(C3)C2 [Example 39]	53 % CTL
N#CNC(=O)C12CC3CC(C1)CC(C14CC5CC(CC(C(=O)O)(C5)C1)C4)(C3)C2 [Example 19]	19 % CTL
CN(CCc1ccccc1)C(=O)C12CC3CC(C1)CC(C14CC5CC(CC(C(=O)O)(C5)C1)C4)(C3)C2 [Example 10]	−3 % CTL
Cn1c(C23CC4CC(C2)CC(C25CC6CC(CC(C(=O)O)(C6)C2)C5)(C4)C3)nc2ccccc21 [Example 32]	8 % CTL
CCN(C(=O)C12CC3CC(C1)CC(C14CC5CC(CC(C(=O)O)(C5)C1)C4)(C3)C2)C1CCCCC1 [Example 35]	−3 % CTL
CN(C(=O)C12CC3CC(C1)CC(C14CC5CC(CC(C(=O)O)(C5)C1)C4)(C3)C2)c1ccc(-c2ccccc2)cc1 [Example 34]	36 % CTL
O=C(O)C12CC3CC(C1)CC(C14CC5CC(CC(C(=O)Nc6ccccc6)(C5)C1)C4)(C3)C2 [Example 28]	96 % CTL
COc1ccc(N(C)C(=O)C23CC4CC(C2)CC(C25CC6CC(CC(C(=O)O)(C6)C2)C5)(C4)C3)cc1 [Example 33]	81 % CTL
O=C(O)C12CC3CC(C1)CC(C14CC5CC(CC(C(=O)N6Cc7ccccc7C6)(C5)C1)C4)(C3)C2 [Example 42]	−36 % CTL
CN(C(=O)C12CC3CC(C1)CC(C14CC5CC(CC(C(=O)O)(C5)C1)C4)(C3)C2)C1CCCCC1 [Example 29]	−8 % CTL
O=C(O)C12CC3CC(C1)CC(C14CC5CC(CC(C(=O)N6CCOCC6)(C5)C1)C4)(C3)C2 [Example 12]	1 % CTL
O=C(O)C12CC3CC(C1)CC(C14CC5CC(CC(C(=O)N6CCC6)(C5)C1)C4)(C3)C2 [Example 20]	7 % CTL
O=C(O)C12CC3CC(C1)CC(C14CC5CC(CC(c6nc7ccccc7o6)(C5)C1)C4)(C3)C2 [Example 27]	12 % CTL
O=C(O)C12CC3CC(C1)CC(C14CC5CC(CC(C(=O)N6CCc7ccccc76)(C5)C1)C4)(C3)C2 [Example 51]	4 % CTL
O=C(O)C12CC3CC(C1)CC(C14CC5CC(CC(c6nc7ccccc7n6CCc6ccccc6)(C5)C1)C4)(C3)C2 [Example 41]	0 % CTL
CCN(C)C(=O)C12CC3CC(C1)CC(C14CC5CC(CC(C(=O)O)(C5)C1)C4)(C3)C2 [Example 18]	−26 % CTL
CN(C(=O)C12CC3CC(C1)CC(C14CC5CC(CC(C(=O)O)(C5)C1)C4)(C3)C2)C1CCC(c2ccccc2)CC1 (stereo not shown) [Example 36]	13 % CTL
NC(=O)C12CC3CC(C1)CC(C14CC5CC(CC(C(=O)O)(C5)C1)C4)(C3)C2 [Example 5]	50 % CTL
CN(C)C(=O)C12CC3CC(C1)CC(C14CC5CC(CC(C(=O)O)(C5)C1)C4)(C3)C2 [Example 4]	−13 % CTL
N#Cc1ccc2c(c1)CN(C(=O)C13CC4CC(C1)CC(C15CC6CC(CC(C(=O)O)(C6)C1)C5)(C4)C3)CC2 [Example 44]	−17 % CTL
CN1CCN(C(=O)C23CC4CC(C2)CC(C25CC6CC(CC(C(=O)O)(C6)C2)C5)(C4)C3)CC1 [Example 22]	37 % CTL
O=C(O)C12CC3CC(C1)CC(C14CC5CC(CC(c6ncc7ccccc7n6)(C5)C1)C4)(C3)C2 [Example 50]	−9 % CTL
O=C(O)c1ccc(Oc2ccc3c(c2)CN(C(=O)C24CC5CC(C2)CC(C26CC7CC(CC(C(=O)O)(C7)C2)C6)(C5)C4)CC3)cc1 [Example 45]	8 % CTL
CC(C)N(C)C(=O)C12CC3CC(C1)CC(C14CC5CC(CC(C(=O)O)(C5)C1)C4)(C3)C2 [Example 17]	−26 % CTL
